Experiment [1] has as its target T1, Mitogen-activated protein kinase kinase kinase 7 (Homo sapiens) (UniProt O43318).
T1 sequence (whole entry): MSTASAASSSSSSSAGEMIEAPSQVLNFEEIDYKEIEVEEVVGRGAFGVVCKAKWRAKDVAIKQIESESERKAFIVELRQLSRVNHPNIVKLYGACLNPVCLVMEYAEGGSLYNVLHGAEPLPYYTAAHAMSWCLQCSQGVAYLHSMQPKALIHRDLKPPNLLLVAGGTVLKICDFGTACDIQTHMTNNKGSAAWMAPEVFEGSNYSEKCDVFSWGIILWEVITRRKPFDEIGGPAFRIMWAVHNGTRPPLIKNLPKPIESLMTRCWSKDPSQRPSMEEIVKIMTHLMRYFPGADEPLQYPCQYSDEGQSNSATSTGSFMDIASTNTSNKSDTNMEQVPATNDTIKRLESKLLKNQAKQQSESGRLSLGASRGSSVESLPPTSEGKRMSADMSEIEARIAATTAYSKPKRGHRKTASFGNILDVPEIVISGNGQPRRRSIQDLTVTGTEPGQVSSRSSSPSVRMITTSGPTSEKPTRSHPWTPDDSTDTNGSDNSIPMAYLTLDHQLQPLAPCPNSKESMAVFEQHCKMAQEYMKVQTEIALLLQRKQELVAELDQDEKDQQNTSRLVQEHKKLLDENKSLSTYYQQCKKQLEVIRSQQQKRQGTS
The experiment can be described thus: Selectivity interaction (Upstate Kinase Profiler service (Millipore)) EUB0000056c MAP3K7. Conditions: at 1 µM.

For a further experiment, the target named is Activated CDC42 kinase 1 (Homo sapiens, UniProt Q07912). The experiment can be described thus: Selectivity interaction (ProQinase) EUB0000171b TNK2.
Chain of Activated CDC42 kinase 1 (Q07912 whole entry, looked up): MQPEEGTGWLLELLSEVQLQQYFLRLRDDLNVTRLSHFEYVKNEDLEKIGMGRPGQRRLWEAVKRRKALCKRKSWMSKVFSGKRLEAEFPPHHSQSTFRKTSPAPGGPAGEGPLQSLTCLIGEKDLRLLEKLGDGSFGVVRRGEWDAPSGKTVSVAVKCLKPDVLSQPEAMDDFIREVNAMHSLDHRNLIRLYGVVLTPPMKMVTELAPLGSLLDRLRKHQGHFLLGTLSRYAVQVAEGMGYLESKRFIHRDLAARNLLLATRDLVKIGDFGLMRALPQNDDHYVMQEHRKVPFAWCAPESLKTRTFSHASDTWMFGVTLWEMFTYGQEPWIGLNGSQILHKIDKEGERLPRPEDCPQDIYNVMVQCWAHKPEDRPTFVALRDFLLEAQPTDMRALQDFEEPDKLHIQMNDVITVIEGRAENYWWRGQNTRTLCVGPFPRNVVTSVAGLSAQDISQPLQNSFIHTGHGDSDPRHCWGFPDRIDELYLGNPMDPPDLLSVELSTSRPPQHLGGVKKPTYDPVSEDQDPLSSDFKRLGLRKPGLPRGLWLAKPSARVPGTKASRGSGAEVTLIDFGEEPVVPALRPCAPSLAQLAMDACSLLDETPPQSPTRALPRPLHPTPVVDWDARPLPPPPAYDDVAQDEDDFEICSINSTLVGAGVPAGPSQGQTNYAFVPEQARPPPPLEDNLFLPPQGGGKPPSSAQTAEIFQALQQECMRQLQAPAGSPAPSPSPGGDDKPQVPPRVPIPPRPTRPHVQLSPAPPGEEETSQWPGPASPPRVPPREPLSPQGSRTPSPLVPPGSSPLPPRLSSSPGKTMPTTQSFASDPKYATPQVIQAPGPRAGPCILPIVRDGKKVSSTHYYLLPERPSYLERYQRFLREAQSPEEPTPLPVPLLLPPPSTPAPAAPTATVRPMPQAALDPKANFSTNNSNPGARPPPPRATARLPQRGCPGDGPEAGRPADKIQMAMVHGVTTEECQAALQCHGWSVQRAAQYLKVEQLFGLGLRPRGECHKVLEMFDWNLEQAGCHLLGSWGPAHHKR
In experiment [2] the target is Serine/threonine-protein kinase 32C (Homo sapiens) (UniProt Q86UX6). The experiment can be described thus: Selectivity interaction (Ambit KINOMEscan and KiNATiv profiling in Jurkat cells) EUB0000090b STK32C. The class given is cell-based. To be noted: at 1 µM.
Chain of Serine/threonine-protein kinase 32C (Homo sapiens) (Q86UX6 whole entry): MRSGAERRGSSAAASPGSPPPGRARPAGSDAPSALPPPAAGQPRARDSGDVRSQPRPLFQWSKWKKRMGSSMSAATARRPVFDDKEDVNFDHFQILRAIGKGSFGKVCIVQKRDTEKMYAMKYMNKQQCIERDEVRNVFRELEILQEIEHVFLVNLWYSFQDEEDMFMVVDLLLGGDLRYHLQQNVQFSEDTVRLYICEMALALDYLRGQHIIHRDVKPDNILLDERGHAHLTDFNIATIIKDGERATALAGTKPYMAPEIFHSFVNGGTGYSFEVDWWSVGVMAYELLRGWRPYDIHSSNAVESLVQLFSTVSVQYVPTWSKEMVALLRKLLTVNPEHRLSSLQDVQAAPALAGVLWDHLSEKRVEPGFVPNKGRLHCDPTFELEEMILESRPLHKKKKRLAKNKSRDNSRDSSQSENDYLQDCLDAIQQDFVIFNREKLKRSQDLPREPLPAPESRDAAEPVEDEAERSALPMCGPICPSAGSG
The target of experiment [3] is T2, Serine/threonine-protein kinase Nek1 (Homo sapiens) (UniProt Q96PY6).
T2 sequence (whole entry): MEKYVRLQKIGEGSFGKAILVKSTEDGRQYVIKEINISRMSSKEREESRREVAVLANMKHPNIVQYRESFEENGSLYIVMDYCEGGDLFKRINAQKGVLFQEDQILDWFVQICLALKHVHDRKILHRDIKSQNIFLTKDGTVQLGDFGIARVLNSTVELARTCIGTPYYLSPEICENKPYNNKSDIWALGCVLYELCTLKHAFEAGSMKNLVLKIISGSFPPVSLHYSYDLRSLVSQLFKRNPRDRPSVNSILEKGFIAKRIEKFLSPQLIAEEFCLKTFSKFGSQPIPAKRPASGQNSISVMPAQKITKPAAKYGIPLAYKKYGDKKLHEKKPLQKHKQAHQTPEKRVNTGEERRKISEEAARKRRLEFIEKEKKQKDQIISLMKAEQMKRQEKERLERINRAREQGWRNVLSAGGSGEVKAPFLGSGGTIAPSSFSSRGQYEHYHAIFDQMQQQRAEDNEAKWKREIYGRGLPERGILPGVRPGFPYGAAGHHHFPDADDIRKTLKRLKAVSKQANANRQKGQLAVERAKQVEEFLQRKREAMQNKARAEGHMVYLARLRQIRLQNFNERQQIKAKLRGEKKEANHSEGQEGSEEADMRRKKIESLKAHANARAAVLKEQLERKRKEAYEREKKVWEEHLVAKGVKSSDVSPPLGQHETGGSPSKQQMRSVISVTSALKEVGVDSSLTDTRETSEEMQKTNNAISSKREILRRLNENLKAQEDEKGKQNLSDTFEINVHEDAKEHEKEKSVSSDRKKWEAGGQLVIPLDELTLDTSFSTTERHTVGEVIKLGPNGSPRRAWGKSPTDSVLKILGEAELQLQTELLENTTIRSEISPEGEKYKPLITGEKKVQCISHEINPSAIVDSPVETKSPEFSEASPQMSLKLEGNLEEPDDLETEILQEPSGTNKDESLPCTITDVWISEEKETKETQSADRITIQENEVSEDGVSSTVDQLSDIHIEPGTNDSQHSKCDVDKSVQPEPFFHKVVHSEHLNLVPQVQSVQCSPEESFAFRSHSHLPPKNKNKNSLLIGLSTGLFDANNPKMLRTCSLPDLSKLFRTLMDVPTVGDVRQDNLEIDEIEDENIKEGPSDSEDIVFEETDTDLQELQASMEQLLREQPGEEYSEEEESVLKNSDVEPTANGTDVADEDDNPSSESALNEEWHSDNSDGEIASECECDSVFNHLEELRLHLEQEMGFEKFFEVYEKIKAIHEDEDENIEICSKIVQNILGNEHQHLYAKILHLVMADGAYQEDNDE
Put plainly: Selectivity interaction (KinomeScan (DiscoverX)) EUB0001079a NEK1. To be noted: at 1 µM.

Experiment [4] has as its target Fibroblast growth factor receptor 3 (Homo sapiens, UniProt P22607). The experiment can be described thus: Selectivity interaction (KinomeScan (DiscoverX)) EUB0000092b FGFR3. To be noted: at 10 µM.
Experiment [5] addresses Myosin light chain kinase, smooth muscle (Homo sapiens, UniProt Q15746). The experiment can be described thus: Selectivity interaction (KinomeScan (DiscoverX)) EUB0000655a MYLK. Conditions: at 10 µM.
For experiment [6], the target named is Serine/threonine-protein kinase/endoribonuclease IRE1 (Homo sapiens) (UniProt O75460). Put plainly: Selectivity interaction (KinomeScan (DiscoverX)) EUB0000045b ERN1.
Chain of Serine/threonine-protein kinase/endoribonuclease IRE1 (Homo sapiens) (O75460 19-977 limits assumed): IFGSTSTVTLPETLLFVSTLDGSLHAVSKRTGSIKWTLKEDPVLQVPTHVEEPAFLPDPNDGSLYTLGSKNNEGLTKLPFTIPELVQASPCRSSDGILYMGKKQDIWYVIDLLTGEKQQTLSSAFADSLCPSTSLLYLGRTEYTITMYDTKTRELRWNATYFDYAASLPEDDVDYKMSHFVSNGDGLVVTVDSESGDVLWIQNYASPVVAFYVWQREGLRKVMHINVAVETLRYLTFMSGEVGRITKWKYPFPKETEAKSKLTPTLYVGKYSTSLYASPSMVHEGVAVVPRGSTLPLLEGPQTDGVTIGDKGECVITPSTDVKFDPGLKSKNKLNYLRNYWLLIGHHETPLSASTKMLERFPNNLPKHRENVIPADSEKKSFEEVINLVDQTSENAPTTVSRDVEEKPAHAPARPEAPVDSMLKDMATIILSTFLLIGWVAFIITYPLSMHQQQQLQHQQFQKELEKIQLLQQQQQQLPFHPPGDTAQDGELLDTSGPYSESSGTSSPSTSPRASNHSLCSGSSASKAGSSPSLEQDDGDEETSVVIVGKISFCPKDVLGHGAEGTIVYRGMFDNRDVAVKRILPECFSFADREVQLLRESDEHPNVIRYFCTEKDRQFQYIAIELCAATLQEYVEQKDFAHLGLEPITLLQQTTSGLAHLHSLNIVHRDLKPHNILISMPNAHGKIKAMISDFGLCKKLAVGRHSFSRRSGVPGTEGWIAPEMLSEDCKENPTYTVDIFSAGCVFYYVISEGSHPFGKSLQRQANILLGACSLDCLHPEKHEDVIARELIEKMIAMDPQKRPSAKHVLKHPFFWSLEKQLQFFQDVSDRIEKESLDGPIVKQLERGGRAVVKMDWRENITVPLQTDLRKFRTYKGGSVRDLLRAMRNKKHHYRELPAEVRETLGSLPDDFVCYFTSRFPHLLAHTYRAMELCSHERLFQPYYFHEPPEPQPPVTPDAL
Experiment [7] deals with LIM domain kinase 1 (Homo sapiens) (UniProt P53667). The experiment can be described thus: Selectivity interaction (KinomeScan (DiscoverX)) EUB0000045b LIMK1.
Chain of LIM domain kinase 1 (Homo sapiens) (P53667 whole entry, looked up, the tested form may be a part): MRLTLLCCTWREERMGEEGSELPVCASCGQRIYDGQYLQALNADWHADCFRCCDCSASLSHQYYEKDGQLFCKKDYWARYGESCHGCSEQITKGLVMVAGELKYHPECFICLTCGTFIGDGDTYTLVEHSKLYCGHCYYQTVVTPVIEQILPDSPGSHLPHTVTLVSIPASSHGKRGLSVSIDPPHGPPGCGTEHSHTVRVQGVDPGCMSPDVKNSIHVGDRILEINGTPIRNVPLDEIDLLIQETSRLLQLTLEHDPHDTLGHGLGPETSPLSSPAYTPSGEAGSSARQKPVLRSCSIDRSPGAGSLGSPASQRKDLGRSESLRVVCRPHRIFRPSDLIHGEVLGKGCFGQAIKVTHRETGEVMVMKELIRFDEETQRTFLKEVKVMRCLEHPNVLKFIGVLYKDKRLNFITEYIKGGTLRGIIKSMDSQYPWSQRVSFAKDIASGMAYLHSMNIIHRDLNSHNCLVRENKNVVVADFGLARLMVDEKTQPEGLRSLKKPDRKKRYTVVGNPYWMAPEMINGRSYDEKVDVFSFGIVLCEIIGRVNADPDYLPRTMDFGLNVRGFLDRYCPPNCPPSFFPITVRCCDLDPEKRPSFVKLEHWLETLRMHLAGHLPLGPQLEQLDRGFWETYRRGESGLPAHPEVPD
The target of experiment [8] is Tyrosine-protein kinase Lyn (Homo sapiens, UniProt P07948). The experiment can be described thus: Selectivity interaction (SelectScreen profiling (Invitrogen)) EUB0000607a LYN. Conditions: at 2 µM.
Experiment [9] concerns the target 5'-AMP-activated protein kinase catalytic subunit alpha-1 (Homo sapiens, UniProt Q13131). Put plainly: Selectivity interaction (Kinase panel (Invitrogen)) EUB0000639a PRKAA1. To be noted: at 200 nM.
In experiment [10] the target is Tyrosine-protein kinase Fes/Fps (Homo sapiens) (UniProt P07332). The experiment can be described thus: Selectivity interaction (ActivX KiNativ screen (ex vivo kinase selectivity in human PBMCs)) EUB0001619a FES. The class given is cell-based. Conditions: PBMC, at 1 µM.

From ChEMBL document CHEMBL5465560, “Selectivity Literature for EUbOPEN Chemogenomic Library” (2024) come the findings set out here.

Molecules are shown by their SMILES.

Chain of Myosin light chain kinase, smooth muscle (Q15746 whole entry): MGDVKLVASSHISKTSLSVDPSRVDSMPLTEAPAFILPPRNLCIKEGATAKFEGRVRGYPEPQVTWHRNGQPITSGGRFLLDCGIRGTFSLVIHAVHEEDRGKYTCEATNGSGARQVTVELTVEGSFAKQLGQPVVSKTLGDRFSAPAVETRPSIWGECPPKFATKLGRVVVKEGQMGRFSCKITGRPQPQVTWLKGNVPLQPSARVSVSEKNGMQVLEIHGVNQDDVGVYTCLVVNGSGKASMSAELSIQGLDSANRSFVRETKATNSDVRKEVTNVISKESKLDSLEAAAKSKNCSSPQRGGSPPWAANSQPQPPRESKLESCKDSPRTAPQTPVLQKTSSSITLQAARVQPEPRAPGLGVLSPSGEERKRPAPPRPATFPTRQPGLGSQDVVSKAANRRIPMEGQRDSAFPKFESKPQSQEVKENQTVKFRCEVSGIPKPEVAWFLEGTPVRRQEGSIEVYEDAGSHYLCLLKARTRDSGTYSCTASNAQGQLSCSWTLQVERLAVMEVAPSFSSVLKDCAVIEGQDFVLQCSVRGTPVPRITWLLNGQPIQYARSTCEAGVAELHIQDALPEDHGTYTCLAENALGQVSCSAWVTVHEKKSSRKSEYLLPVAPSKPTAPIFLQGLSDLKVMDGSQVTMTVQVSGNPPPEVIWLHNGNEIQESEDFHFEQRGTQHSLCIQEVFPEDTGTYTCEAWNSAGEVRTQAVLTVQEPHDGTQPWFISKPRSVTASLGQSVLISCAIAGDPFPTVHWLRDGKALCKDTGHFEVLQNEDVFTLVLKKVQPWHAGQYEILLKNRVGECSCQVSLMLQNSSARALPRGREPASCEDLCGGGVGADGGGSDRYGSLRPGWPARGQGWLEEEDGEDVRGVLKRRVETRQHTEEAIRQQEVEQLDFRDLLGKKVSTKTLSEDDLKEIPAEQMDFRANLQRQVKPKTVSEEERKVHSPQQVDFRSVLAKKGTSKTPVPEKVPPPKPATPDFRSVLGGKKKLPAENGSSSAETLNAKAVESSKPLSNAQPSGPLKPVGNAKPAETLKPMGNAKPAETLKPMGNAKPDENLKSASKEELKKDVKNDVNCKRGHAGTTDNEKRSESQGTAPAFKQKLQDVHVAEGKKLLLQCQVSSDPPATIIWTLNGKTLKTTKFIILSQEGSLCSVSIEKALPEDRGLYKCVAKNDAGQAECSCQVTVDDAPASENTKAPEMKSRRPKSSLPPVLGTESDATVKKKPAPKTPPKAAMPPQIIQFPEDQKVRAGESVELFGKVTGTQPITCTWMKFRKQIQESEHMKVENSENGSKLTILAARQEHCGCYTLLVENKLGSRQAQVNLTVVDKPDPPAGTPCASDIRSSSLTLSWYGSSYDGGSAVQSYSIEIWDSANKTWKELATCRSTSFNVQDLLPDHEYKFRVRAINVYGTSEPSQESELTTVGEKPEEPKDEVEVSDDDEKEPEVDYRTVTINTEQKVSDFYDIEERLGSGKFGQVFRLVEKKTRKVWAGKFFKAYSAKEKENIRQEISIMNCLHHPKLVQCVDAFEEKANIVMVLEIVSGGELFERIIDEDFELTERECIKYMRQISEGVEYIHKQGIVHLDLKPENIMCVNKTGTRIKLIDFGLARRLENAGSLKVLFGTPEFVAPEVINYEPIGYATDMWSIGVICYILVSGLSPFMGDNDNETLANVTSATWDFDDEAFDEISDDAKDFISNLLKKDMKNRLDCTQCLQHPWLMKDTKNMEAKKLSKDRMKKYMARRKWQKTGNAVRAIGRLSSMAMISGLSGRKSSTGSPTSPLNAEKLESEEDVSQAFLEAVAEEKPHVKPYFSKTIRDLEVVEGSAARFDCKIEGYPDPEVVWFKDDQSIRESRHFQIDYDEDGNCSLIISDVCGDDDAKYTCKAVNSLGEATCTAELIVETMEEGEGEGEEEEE

In turn, `Cc1ccc(-c2ccc3c(ccc4sc5c(c43)NC[C@@H](C)NC5=O)n2)cn1` yielded a % of inhibition in experiment [1] of 6%.
As for `C=CC(=O)Nc1cccc(C(=O)Nc2ccc(Nc3cc(-c4[nH]c(SC)nc4C)ccn3)cc2)c1`, the % of control on Activated CDC42 kinase 1 (at 1 µM) is 100%; on Activated CDC42 kinase 1 (at 5 µM) it was 95%.
`CN(C)C/C=C/C(=O)Nc1ccc(C(=O)N2CCCC(Nc3ncc(Cl)c(-c4c[nH]c5ccccc45)n3)C2)cc1` (centres undefined) showed a % of control in [2] of 71%.
In [3], `Nc1cnc(N2CCc3cc(S(=O)(=O)Nc4c(F)cc(Cl)cc4F)cc(N4CCCC4=O)c32)nc1` [TP-020n] yielded a % of control of 46%.
In the case of `CCC(=O)N1CCN(c2ccc(-n3c(=O)ccc4cnc5ccc(-c6cnc7ccccc7c6)cc5c43)cc2C(F)(F)F)CC1`, the % of control in experiment [4] is 42%.
Molecule `CN(C)CCOc1ccc(-c2nc(-c3ccncc3)c(-c3ccc4c(c3)CC/C4=N\O)[nH]2)cc1` showed a % of control in [5] of 98%.
Take `C=CC(=O)Nc1cc(-n2c(=O)ccc3cnc4ccc(-c5ccc(NS(C)(=O)=O)cc5)cc4c32)ccc1C`: the % of control is 100% in experiment [6] (at 1 µM), 99% in experiment [6] (at 10 µM), 100% in experiment [7] (at 1 µM) and 95% in experiment [7] (at 10 µM).
For `CNC(=O)Nc1ccc(-c2nc(N3CC4CCC(C3)O4)c3cnn(C4CCC5(CC4)OCCO5)c3n2)cc1`, the % of inhibition in experiment [8] stood at 5%.
In turn, `CC[C@@H]1[C@H](F)C(=O)N[C@@H]1COc1nccc2cc(C(N)=O)c(OC)cc12` [ZIMLOVISERTIB] gave a % of inhibition in experiment [9] of 13.1%.
As to `N#Cc1cccc(-c2c[nH]c3ncnc(N4CCOCC4)c23)c1`, the % of inhibition in [10] came out at 7%.
